The assay deals with T1, HLA-A2 (Homo sapiens, UniProt P04439, D140Y/D185E/D98H/E176V/E277Q/G131W/G231S/I119V/I121R/I166T/I218V/L300P/L318F/N151K/N90K/P208A/P217A/Q86G/Q94H/R138H/R169H/T345S).
T1 construct: stabilization of the class 1 molecule after loading of peptide to the peptide transporter deficient cell line T2; endogenous in cells; host or cells: T2 (TAP-deficient human cell line), metabolically labelled with [35S]-methionine and lysed
Put plainly: Assembly assay for peptide binding to class I MHC molecules. Particulars: concentration of the peptide required for half maximal binding to HLA-A2; read-out: C50. The procedure: Assembly assays for binding of the synthetic peptides to class I MHC molecules metabolically labeled with [^35S]-methionine can be carried out as described below. It will be appreciated by the person skilled in the art that the protocol may be adopted for any peptide and any class I MHC molecule.
Briefly, TAP deficient cells were metabolically labeled with [^35S]-methionine (Amersham, Freiburg, Germany). The cells were lyzed in 0.5 ml lysis buffer (150 mM NaCl, 50 mM TrisHCl, 0.5% NP-40 (Fluka, Buchs, Switzerland), 5 mM EDTA, pH 7.5) with 0.5% Mega-9 (Sigma, St. Louis, USA) in the presence of protease inhibitors (2 mM PMSF, 5 mM iodoacetamide, 2 μg/ml pepstatin, 2 μg/ml leupeptin) with or without synthetic peptide (for a list of positive control peptides, see Table 2).
After 20 min of incubation, the cell nuclei were removed by centrifugation (5 min, 10,000 g) and 50 μl (10% v/v) freshly washed Staphylococcus aureus organisms (Pansorbin, Calbiochem, Nottingham, UK). The next day Pansorbin was removed by centrifugation (12 min, 16,000 g) and the appropriate monoclonal antibody was added at a final concentration of 10 μg/ml, incubated for 90 min, followed by addition of protein A-Sepharose (75 μl, 10% v/v) and incubation for 1 h. The beads were washed 4 times and stored at −20° C. until analysis by electrophoresis.
In the case of an assembly assay with the HLA class I-specific conformation-dependent monoclonal antibody W6/32, samples were eluted in reducing buffer (9.5 M urea, 2% NP-40, 5% 2-mercaptoethanol, 2% Ampholines, pH range 3.5-9.5 (Pharmacia Biotech, Uppsala, Sweden)) and focused for 16 h at 880 V on 5.5% polyacrylamide isoelectric focusing (IEF) gels^20,39.
Samples from assembly assays with allele-specific antibodies were eluted by boiling (5 min) in SDS reducing buffer (50 mM TrisHCl pH 6.8, 2% SDS, 5% 2-mercaptoethanol, 10% glycerol, 2.5% bromophenol blue) and electrophorezed on 12% SDS-PAGE gels (1 h at 200 V). All gels were fixed in 10% acetic acid with 5% methanol and dried onto 3 MM paper (Whatman, Maidstone, UK). MHC heavy chain bands were quantified using the Imagequant Phosphorimager program (Molecular Dynamics, Sunnyvale, Calif., USA). The intensity of the band is directly related to the amount of peptide-bound class I MHC complex recovered during the assay. C50 value (μM) as the concentration of the peptide required for half maximal binding to MHC may thus be determined. The binding affinities of the analysed peptides are determined according to their efficiency of stabilising the HLA class I molecules. The binding affinity is represented as the peptide concentration required to reach half-maximal stabilistation of appropriate HLA-molecule.
Assembly assays for binding of the synthetic peptides to class I MHC molecules metabolically labeled with [^35S]-methionine were carried out as described^15,16. The assembly assay is based on stabilization of the class 1 molecule after loading of peptide to the peptide transporter deficient cell line T2. Subsequently correctly folded stable MHC heavy chains are immunoprecipitated using conformation-dependent antibodies. After IEF electrophoresis, gels were exposed to phosphorImager screens, and peptide binding was quantitated using the Imagequant PhosphorImager program (Molecular Dynamics, Sunnyvale, Calif.).

Consider `CC(C)C[C@H](NC(=O)[C@@H](N)CCCNC(=N)N)C(=O)N[C@@H](CCC(N)=O)C(=O)N[C@@H](CCC(=O)O)C(=O)N[C@@H](CCC(=O)O)C(=O)N[C@@H](CCCNC(=N)N)C(=O)N[C@H](C(=O)N[C@@H](CS)C(=O)N[C@@H](CCCCN)C(=O)N[C@H](C(=O)O)C(C)C)[C@@H](C)O` [ML-IAP245], for which the EC50 is 1000 nM.

These data come from patent publication US7687465B2, “Therapeutic cancer vaccine” (Kraeftens Bekaempelse, priority 2003, dated 2010).
